Laboratory results from US4076702A, “Dipeptide derivatives and their production” (Shionogi & Co., Ltd., priority 1974, dated 1978).

How the values were obtained:
DS male mice [1] = test: Taming activity (inhibition of electroshock-induced fighting response); assay type: in vivo; conditions: compound given 60 minutes prior, 5 pairs per group; for ED50: Mus musculus
Protocol: This test was measured on DS male mice. […] These pairs of mice were selected in the morning and used for drug test in the afternoon. The test compound was administered to both mice of the pairs 60 minutes prior to the experiment. Results were obtained as the mean percentage of inhibition of fighting response in a group of 5 pairs and shown by ED50 [Tedeschi, et al.: J. Pharmacol Exp. Thev., 125, 28-34 (1959)].

DS male mice [2] = test: Anti-pentylenetetrazol activity; assay type: in vivo; conditions: test compound orally 60 minutes prior to 125 mg/kg s.c. pentylenetetrazol, complete protection against mortality, observed two hours; for ED50: Mus musculus
Source text: (1) Anti-pentylenetetrazol activity:
The convulsions were disregarded.

DS male mice [3] = test: Rotarod performance activity; assay type: in vivo; conditions: fall from rod within less than 2 minutes counted as effective, 10 mice per dose; for ED50: Mus musculus
Protocol: (3) Rotarod performance activity
This test was measured on DS male mice. The mouse was put on a scraped rod of wood, 3 cm in diameter, turning at the rate of five rotations per minute. The mice that could remain on the rod for three or more minutes in successive trials were selected and placed in a group of 10 mice for each dose. If the mouse fell down from the rod within less than 2 minutes, the test compound was considered to be effective. Results were shown by ED50 [Dunham, et al.: J. Am. Pharm. Assoc., 46, 208 (1957)].

DS male mice [4] = conditions: oral single dose, observed 72 hours, Bliss method
Protocol: The test compound was orally administered to DS male mice in different single doses. For each dose, 10 mice were used, their weight ranging from 20 to 23 grams. […] The mortality was calculated by the Bliss method [Bliss: Ann.

| Structure (SMILES) | ED50 (DS male mice [1]) | ED50 (DS male mice [2]) | ED50 (DS male mice [3]) | Taming activity ED50 (DS male mice [1]) | Acute toxicity LD50 (DS male mice [4]) | Anti-pentylenetetrazol activity, ED50 (DS male mice [2]) | Rotarod performance ED50 (DS male mice [3]) |
| --- | --- | --- | --- | --- | --- | --- | --- |
| CN1C(=O)CN=C(c2ccccc2)c2cc(Cl)ccc21 [Compound No. 5, Diazepam, reference compound] | 6 mg/kg | 1.19 mg/kg | 9.03 mg/kg | – | – | – | – |
| CN(C(=O)CNC(=O)CN)c1ccc(Cl)cc1C(=O)c1ccccc1F.Cl [Compound No. 3, 2-o-fluorobenzoyl-4-chloro-N-methyl-N^α -glycyl-glycinanilide hydrochloride] | – | – | – | 1.6 mg/kg | > 1000 mg/kg | 0.33 mg/kg | 17.0 mg/kg |
| CNC1=Nc2ccc(Cl)cc2C(c2ccccc2)=[N+]([O-])C1 [Compound No. 4, Chlordiazepoxide, reference compound] | 24 mg/kg | 3.7 mg/kg | 50 mg/kg | – | 1090 mg/kg | – | – |
| CN(C(=O)CNC(=O)CN)c1ccc(Cl)cc1C(=O)c1ccccc1Cl.O [Compound No. 2, 2-o-chlorobenzoyl-4-chloro-N-methyl-N^α -glycyl-glycinanilide hydrate] | – | – | – | 3.0 mg/kg | 1255 mg/kg | 0.58 mg/kg | 27.7 mg/kg |
| CN(C(=O)CNC(=O)CN)c1ccc(Cl)cc1C(=O)c1ccccc1 [Compound No. 1, 2-benzoyl-4-chloro-N-methyl-N^α -glycyl-glycinanilide] | – | – | – | 10.5 mg/kg | 1309 mg/kg | 1.0 mg/kg | 36.6 mg/kg |
